Read-outs that look alike come from different tables or passages of the source.
Assays:
[1] = test system: NIH3T3 cells overexpressing the HER2 kinase (3T3-HER2); test: 3T3 Growth Assay (HER2-overexpressing 3T3 cells, SRB); format: cell-based; conditions: Mus musculus
From the text: The following examples illustrate the ability of the exemplary compounds to inhibit receptor tyrosine kinases, such as HER2 and/or EGFR. The following target cells were used for cellular kinase assays: NIH3T3 clone C7 (Honegger et al., supra) engineered to over-express human EGF receptor; NIH3T3 cells engineered to over-express a chimeric receptor containing the EGFR extracellular domain and the HER2 intracellular kinase domain; the human mammary carcinoma line BT474 (ATCC HTB2) expressing HER2; and the human glioblastoma line U1242 that expresses PDGFR-beta. Growth assays were carried out using human mammary epithelial SKBR3 (ATCC HTB30) cells (SKBR3 cells over-express HER2), SKOV3 (ATCC HTB77) human ovarian cancer cell line (SKOV3 cells also over-express HER2), A431 cells (A431 cells over-express EGFR) MCF7 human breast carcinoma cells, MCF7 cells overexpressing the HER2 kinase (MCF7-HER2), NIH3T3 cells, and NIH3T3 cells overexpressing the HER2 kinase (3T3-HER2.
The 3T3 growth assay was carried out as follows: […]
(1) HER2C7 (engineered to express HER2) and NIH3T3C7 (as the control) cells are used for this assay. […] Cells are incubated at 37° C., 5% CO2 overnight to allow for cell attachment to the plate;
(2) The […] compound is added to the cells at day 2. […] A total of 100 μl/well medium of the diluted compounds is added into the cells. The total volume of each well is 200 μl. Quadruplicates (wells) and 11 concentration points are applied to each compound tested.
(3) After the cells are treated with the compound for 4 days, the cells are washed with PBS and fixed with 200 μl/well ice-cold 10% TCA for one hour at 0°-5° C. condition.
(4) Remove TCA and rinse wells 5 times with deionized water. Dry plates upside down with paper towels. Stain cells with 0.4% SRB at 100 μl well for 10 minutes.
(5) Pour off SRB and rinse plate 5 times with 1% acetic acid. Dry plate completely.
(6) Solubilize the dye with 10 mM Tris-base at 100 μl/well for 10 minutes on a shaker.
(7) Read the plate at dual wavelengths at 570 nm and 630 nm on Dynatech Elisa plate reader.

human EGF receptor = target: T1, human EGF receptor (Homo sapiens, UniProt P00533); test: EGFR Whole Cell Kinase Assay (EGFR-3T3 assay); format: cell-based
T1 construct: expressed in transfected cells; host or cells: NIH3T3 clone C7 (EGFR/C7)
Procedure: Growth assays were carried out using human mammary epithelial SKBR3 (ATCC HTB30) cells (SKBR3 cells over-express HER2), SKOV3 (ATCC HTB77) human ovarian cancer cell line (SKOV3 cells also over-express HER2), A431 cells (A431 cells over-express EGFR) MCF7 human breast carcinoma cells, MCF7 cells overexpressing the HER2 kinase (MCF7-HER2), NIH3T3 cells, and NIH3T3 cells overexpressing the HER2 kinase (3T3-HER2.
EGFR Whole Cell Kinase Assay
EGFR kinase activity (EGFR-3T3 assay) in whole cells was measured as described below:
Coated plates are good for up to 10 days when stored at 4.sunburst.C.
B. On day of use, remove coating buffer and replace with blocking buffer (5% Carnation Instant NonFat Dry Milk in PBS). Incubate the plate, shaking, at room temperature (about 23.sunburst.C to 25.sunburst.C) for 30 minutes. Just prior to use, remove blocking buffer and wash plate 4 times with TBST buffer.
A. EGFR/C7 cell line (Honegger, et al., supra) can be used for this assay.
B. Choose dishes having 80-90% confluence for the experiment.
Trypsinize cells and stop reaction by adding 10% CS DMEM medium. Suspend cells in DMEM medium (10% CS DMEM medium) and centrifuge once at 1000 rpm, and once at room temperature for 5 minutes.
C. Resuspend cells in seeding medium (DMEM, 0.5% bovine serum), and count the cells using trypan blue. Viability above 90% is acceptable. Seed cells in DMEM medium (0.5% bovine serum) at a density of 10,000 cells per well, 100 μl per well, in a 96 well microtiter plate. Incubate seeded cells in 5% CO2 at 37.sunburst.C for about 40 hours.
A. Check seeded cells for contamination using an inverted microscope. Dilute drug stock (10 mg/ml in DMSO) 1:10 in DMEM medium, then transfer 5 μl to a test well for a final drug dilution of 1:200 and a final DMSO concentration of 1%.
Control wells receive DMSO alone. Incubate in 5% CO2 at 37° C. for one hour.
C. Prepare fresh HNTG sufficient for 100 μl per well; and place on ice.
Control wells receive DMEM alone. […]
K. The maximal phosphotyrosine signal is determined by subtracting the value of the negative controls from the positive controls.

[2] = read-out: GROWTH DATA: 3T3/HER2 2% FBS
[3] = read-out: GROWTH DATA: 3T3/HER2 10% FBS
[4] = EGFR/C7 NIH3T3 cells, EGF stimulated, read-out: ELISA DATA: EGFR

T1 sequence (P00533 25-1210): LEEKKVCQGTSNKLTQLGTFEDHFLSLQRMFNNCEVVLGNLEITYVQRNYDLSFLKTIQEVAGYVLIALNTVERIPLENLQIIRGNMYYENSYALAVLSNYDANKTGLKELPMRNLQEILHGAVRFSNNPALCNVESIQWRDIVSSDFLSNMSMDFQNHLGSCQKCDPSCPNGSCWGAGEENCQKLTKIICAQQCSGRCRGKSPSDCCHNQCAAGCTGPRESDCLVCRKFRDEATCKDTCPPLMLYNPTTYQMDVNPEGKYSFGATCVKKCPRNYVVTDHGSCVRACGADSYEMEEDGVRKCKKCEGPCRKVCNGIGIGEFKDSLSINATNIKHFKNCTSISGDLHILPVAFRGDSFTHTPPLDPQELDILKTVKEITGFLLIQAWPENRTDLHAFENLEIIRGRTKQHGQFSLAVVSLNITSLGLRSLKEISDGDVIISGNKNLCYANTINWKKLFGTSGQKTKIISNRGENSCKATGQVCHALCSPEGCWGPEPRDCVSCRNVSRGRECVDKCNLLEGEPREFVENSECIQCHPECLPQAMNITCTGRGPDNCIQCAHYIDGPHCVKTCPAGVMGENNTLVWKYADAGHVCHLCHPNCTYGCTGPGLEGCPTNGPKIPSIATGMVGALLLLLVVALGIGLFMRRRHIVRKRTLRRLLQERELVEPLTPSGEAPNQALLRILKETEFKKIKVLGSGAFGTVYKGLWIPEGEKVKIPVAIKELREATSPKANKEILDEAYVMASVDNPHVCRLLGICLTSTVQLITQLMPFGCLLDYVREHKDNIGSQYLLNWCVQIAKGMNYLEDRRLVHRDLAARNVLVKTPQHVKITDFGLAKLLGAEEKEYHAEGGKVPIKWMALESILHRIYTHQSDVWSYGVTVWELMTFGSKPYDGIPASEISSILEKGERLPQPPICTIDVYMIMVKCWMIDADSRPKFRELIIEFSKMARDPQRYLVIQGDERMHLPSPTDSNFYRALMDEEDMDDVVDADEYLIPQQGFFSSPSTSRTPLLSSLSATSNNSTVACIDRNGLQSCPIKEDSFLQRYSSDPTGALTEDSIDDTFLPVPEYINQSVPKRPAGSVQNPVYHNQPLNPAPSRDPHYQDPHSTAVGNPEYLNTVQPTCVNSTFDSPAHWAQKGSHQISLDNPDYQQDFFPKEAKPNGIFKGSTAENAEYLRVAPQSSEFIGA

| IC50 (human EGF receptor; [4]) [µM] | SMILES | IC50 [1, 2] [µM] | IC50 [1, 3] [µM] | IC50 (human EGF receptor) [µM] |
| --- | --- | --- | --- | --- |
| > 100 | CC(C)S(=O)(=O)c1csc(NC(=O)Nc2ccc(C(C)(C)C)cc2)c1Cl [Example Z1, N-[3-Chloro-4-(isopropylsulfonyl)thien-2-yl]-N'-(4-t-butylphenyl)urea] | 1 | 15 | – |
| – | CC(C)S(=O)(=O)c1csc(NC(=O)Nc2cc(C(F)(F)F)cc(C(F)(F)F)c2)c1Cl [Example Z2, N-[3-Chloro-4-(isopropylsulfonyl)thien-2-yl]-N'-(3,5-di-trifluoromethylphenyl)urea] | 0.6 | 18 | – |
| – | O=C(Nc1ccc(SC(F)(F)F)cc1)Nc1ccc(Oc2ccc(Cl)cc2Cl)nc1 [Example Z3] | 0.35 | 18 | 69.5 |
| > 100 | N#Cc1ccc(NC(=S)Nc2ccc(S(=O)(=O)N3CCCCC3)cc2)cc1 [Example Z4, N-(4-Cyanophenyl)-N'-[4-[(piperid-1-yl)sulfonyl]phenyl]thiourea] | – | – | – |
